Test results taken from patent US10548854B2, “Manufacture of nonelectronic, active-infusion patch and device for transdermal delivery across skin” (The Hong Kong University of Science and Technology, priority 2012, dated 2020).

Columns and labels:
[1] = In-vivo DFS delivery across skin by microneedle plates; parameters: species or system Sprague Dawley rats; conditions: 200 μl of 5 mg/ml DFS bolus, skin sampled after 5 min
Method: A in-vivo test was conducted on Sprague Dawley rates between approximately 230 g-250 g to analyze DFS delivery. […] 200 μl of 5 mg/ml DFS in phosphate buffered saline (PBS) was injected through rats' naked skin with either zeolite microneedles or commercial microneedles in bolus. A negative control consisted of placing excess DFS solution on rats' naked skin. After 5 min, the skins were washed by iced DI water. About 1 mm diameter of skin samples at the injection sites were carefully cut and then weighed in 2 ml centrifuge tubes. Then the skin samples were homogenized in 5 fold PBS buffer by sonication. DFS was extracted from the homogenate by liquid-phase extraction using 500 μl ethyl-acetate for twice. The ethyl-acetate was collected into 1.5 ml centrifuge tubes and then removed under vacuum. The residues were reconstituted by 500 μl ACN:H2O (50:50 w/w ratio) and 200 μl of the reconstituted solution was send for UPLC analysis.

[2] = In-vitro transdermal delivery across porcine ear skin in vertical diffusion cell (active infusion microneedle patch)
From the text: (§1) Porcine ears were freshly obtained from a local slaughter facility, gently washed with running tap water, and chopped into pieces of 50 mm in width. Visual observation was done to check if the skins were free from lesions and infections. Hairs at the back of the ear were carefully removed by clipper. Full thickness skins were obtained using manual-operated dermatome with uniform insertion force and angle. The split skins were cut into discs with 40 mm diameter. The skins were then sprayed and rubbed with 75% ethanol for 1 mm to remove fatty tissues and dirt, followed by DI water washing. Thereafter the skins were blotted with a cellulose-based fiber tissue, such as […] ™, wrapped with aluminum foil, and stored in a −20° C. refrigerator until further use. All prepared porcine skin was used within 2 weeks.
(§2) Vertical diffusion cell was filled with 7 mL phosphate buffered saline (PBS) (137 mM sodium chloride (NaCl), 2.7 mM potassium chloride (KCl), 4.3 mM sodium phosphate dibasic heptahydrate (NaH2PO4.7H2O), and 1.6 mM potassium phosphate monobasic (KH2PO4), pH 7.4) and pre-run at 300 rpm with bath circulator for 1 hr to achieve 37° C. Porcine skin was thawed by soaking in PBS at room temperature for 1 hr. After that, the porcine skin was mounted between the receptor and the donor cell of the diffusion system. The stratum corneum of the skin faced the donor cell while the dermis side faced the receptor cell. The skin was handled with care to avoid bubble accumulation on the receptor side of the skin. Diclofenac sodium (DFS) or insulin (70 μL) and DI water (500 μL) were loaded into the drug and water reservoirs, respectively, through the resealable injector ports. A patch, such as those described in previous examples, was gently shaken to ensure water could make contact with the dried hydrogel inside. The patch was applied on the donor side of the skin by finger force, with the help of adhesive tapes to keep the patch in position. Samples (1 mL) were withdrawn from the receptor cell every hour with immediate replenishment of the same volume of fresh PBS. The tests were done with patches bonded with commercial (ME-C-600), zeolite (SSM-O-150), or plastic (P-O-500) microneedles.
(§3) Quantification of DFS in samples was done by analysis under ultra-performance liquid chromatography (UPLC). With a gradient method A:B=70%:30% to 10%: 90% in 4 min (A=0.02% trifluoroacetic acid (TFA) in H2O; B=0.02% TFA in acetonitrile (ACN)), flow rate=0.45 mL/min with detection wavelength=210 nm. […] Negative control is achieved by direct pipetting of a known amount of drug on skin for diffusion.
(§4) A plastic microneedle plate was used in this experiment.

[3] = pig, 8 h, pH 7.4
From the text: as §1, §2, §3, §4

[4] = test system: blood glucose level; conditions: micro-needles and pressure force (10 psi); cited from earlier work
[5] = test system: blood glucose level; assay: In-vivo insulin delivery, blood glucose level; parameters: species or system Sprague Dawley rats; conditions: after 1 hour
Method: For all zeolite microneedle, commercial microneedle, and the positive control, a significant pharmaceutical effect could be observed after 1 hour, when the blood glucose level of the rats dropped by about 4-fold from the original level and was subsequently maintained for some hours.

[6] = insulin administration by the transdermal patch, compared with other groups
Method: An in vivo test of insulin delivery was conducted on Sprague Dawley rats weighing between approximately 230 g-250 g, which were fasting overnight, but free to access water one day before the test. The rats were anesthetized by a ketamine/xylazine cocktail, and the abdominal hairs were completely removed by a hair clipper followed by chemical depilatory creams. About 80 μl of 100 IU/ml human insulin solution was transdermal administrated to individual rats by either zeolite microneedles or the same type of commercial microneedles used in Example 12. Fixed dosed 0.1 IU insulin solution or saline was also subcutaneously injected by syringes to simulate the positive and negative control respectively. The rats' blood glucose levels were recorded by a portable glucose meter (Roche, Accu-Chek Performa Nano) for 6 hours at different time intervals. For the first 4 hours 200 μl of blood samples were also collected by squeezing the rats' tails. The blood samples were centrifuge at 13000 G for 3 min and then the blood plasma was pipetted into 1.5 ml centrifuge tubes and stored under −80° C. for blood insulin test. The blood insulin levels were tested by an ELISA kit (Mercodia, Human Insulin ELISA). […]
In pharmacokinetics, the administration efficiency of a certain drug is commonly evaluated by its Cmax and Tmax. […]

Molecule | increase of transdermal DFS delivery compared with the negative control ([1]; commercial microneedle) [times] | increase in delivery amount compared with the commercial microneedle ([1]; zeolite microneedle) | DFS delivery rate ([2]; zeolite microneedle plate adhered to the patch, versus negative control) | Percentage of DFS delivered [3] [%] | Total amount of drug delivered [3] [%] | lowering of normalized blood glucose level [4] [%] | drop of blood glucose level from the original level ([5]; commercial microneedle, about 80 μl of 100 IU/ml human insulin) | drop of blood glucose level from the original level ([5]; positive control: 0.1 IU insulin subcutaneously injected by syringe) | drop of blood glucose level from the original level ([5]; zeolite microneedle, about 80 μl of 100 IU/ml human insulin) | Cmax (blood insulin level) [6] | Tmax (blood insulin level) [6] | insulin delivery rate profile ([2]; active infusion patch with zeolite and commercial microneedles) | insulin permeated across skin ([2]; non-porated pig skin, skin patch test (negative control), 70 μL of 4.5 mg/mL insulin)
O=C(O)Cc1ccccc1Nc1c(Cl)cccc1Cl [DFS, Diclofenac sodium] | ~5 | more than 3 fold | improves delivery rates | 17.6±3.2 | 60.9±6.1 |  |  |  |  |  |  |  | 
insulin |  |  |  |  |  | 70 | about 4 fold | about 4 fold | about 4 fold | highest | fastest | linear insulin delivery rate | less than 5%
